Assay results taken from the Kinase Knowledgebase extract (Sharma et al. 2016).

What was measured:
[1] = target: EGFR (human) (UniProt P00533); conditions: h226
[2] = target: EGFR (human) (UniProt P00533); conditions: achn
[3] = target: EGFR (human) (UniProt P00533); conditions: h7 578t
[4] = target: EGFR (human) (UniProt P00533); conditions: uo-31
[5] = target: EGFR (human) (UniProt P00533); conditions: ovcar-5
[6] = target: EGFR (human) (UniProt P00533); conditions: km-12
[7] = target: EGFR (human) (UniProt P00533); conditions: hn5
[8] = target: EGFR (human) (UniProt P00533); conditions: delta
[9] = target: EGFR (human) (UniProt P00533); conditions: colo-205
[10] = target: EGFR (human) (UniProt P00533); conditions: siha
[11] = target: EGFR (human) (UniProt P00533); conditions: malme-3m
[12] = target: EGFR (human) (UniProt P00533); conditions: mda-mb-231/atcc
[13] = target: EGFR (human) (UniProt P00533); conditions: h322m
[14] = target: EGFR (human) (UniProt P00533); conditions: a431
[15] = target: EGFR (human) (UniProt P00533); conditions: sn12c
[16] = target: EGFR (human) (UniProt P00533); conditions: HN5
[17] = target: EGFR (human) (UniProt P00533); conditions: mda-mb-435
[18] = target: EGFR (human) (UniProt P00533); conditions: hct 116
[19] = target: EGFR (human) (UniProt P00533); conditions: rxf-393
[20] = target: EGFR (human) (UniProt P00533); conditions: mcf-7
[21] = target: EGFR (human) (UniProt P00533); conditions: tk-10
[22] = target: EGFR (human) (UniProt P00533); conditions: lox-imvi
[23] = target: EGFR (human) (UniProt P00533); conditions: sk-mel-5
[24] = target: EGFR (human) (UniProt P00533); conditions: sw 620
[25] = target: EGFR (human) (UniProt P00533); conditions: 786-0
[26] = target: EGFR (human) (UniProt P00533); conditions: hop-62
[27] = target: EGFR (human) (UniProt P00533); conditions: mda-n
[28] = target: EGFR (human) (UniProt P00533); conditions: snb-75
[29] = target: EGFR (human) (UniProt P00533); conditions: sf-539
[30] = target: EGFR (human) (UniProt P00533); conditions: t-47d
[31] = target: EGFR (human) (UniProt P00533); conditions: snb-19
[32] = target: EGFR (human) (UniProt P00533); conditions: uacc62
[33] = target: EGFR (human) (UniProt P00533); conditions: pc-3
[34] = target: EGFR (human) (UniProt P00533); conditions: ekvx
[35] = target: EGFR (human) (UniProt P00533); conditions: caki-1
[36] = target: EGFR (human) (UniProt P00533); conditions: rpmi8226
[37] = target: EGFR (human) (UniProt P00533); conditions: molt-4
[38] = target: EGFR (human) (UniProt P00533); conditions: sk-ov-3
[39] = target: EGFR (human) (UniProt P00533); conditions: hct-15
[40] = target: EGFR (human) (UniProt P00533); conditions: ovcar-3
[41] = target: EGFR (human) (UniProt P00533); conditions: h460
[42] = target: EGFR (human) (UniProt P00533); conditions: uacc-257
[43] = target: EGFR (human) (UniProt P00533); conditions: sk-mel-2
[44] = target: EGFR (human) (UniProt P00533); conditions: k562
[45] = target: EGFR (human) (UniProt P00533); conditions: ovcar-4
[46] = target: EGFR (human) (UniProt P00533); conditions: m14
[47] = target: EGFR (human) (UniProt P00533); conditions: ovcar-8
[48] = target: EGFR (human) (UniProt P00533); conditions: sf268
[49] = target: EGFR (human) (UniProt P00533); conditions: bt-549
[50] = target: EGFR (human) (UniProt P00533); conditions: h522

Chain of EGFR (human) (P00533 whole entry, looked up): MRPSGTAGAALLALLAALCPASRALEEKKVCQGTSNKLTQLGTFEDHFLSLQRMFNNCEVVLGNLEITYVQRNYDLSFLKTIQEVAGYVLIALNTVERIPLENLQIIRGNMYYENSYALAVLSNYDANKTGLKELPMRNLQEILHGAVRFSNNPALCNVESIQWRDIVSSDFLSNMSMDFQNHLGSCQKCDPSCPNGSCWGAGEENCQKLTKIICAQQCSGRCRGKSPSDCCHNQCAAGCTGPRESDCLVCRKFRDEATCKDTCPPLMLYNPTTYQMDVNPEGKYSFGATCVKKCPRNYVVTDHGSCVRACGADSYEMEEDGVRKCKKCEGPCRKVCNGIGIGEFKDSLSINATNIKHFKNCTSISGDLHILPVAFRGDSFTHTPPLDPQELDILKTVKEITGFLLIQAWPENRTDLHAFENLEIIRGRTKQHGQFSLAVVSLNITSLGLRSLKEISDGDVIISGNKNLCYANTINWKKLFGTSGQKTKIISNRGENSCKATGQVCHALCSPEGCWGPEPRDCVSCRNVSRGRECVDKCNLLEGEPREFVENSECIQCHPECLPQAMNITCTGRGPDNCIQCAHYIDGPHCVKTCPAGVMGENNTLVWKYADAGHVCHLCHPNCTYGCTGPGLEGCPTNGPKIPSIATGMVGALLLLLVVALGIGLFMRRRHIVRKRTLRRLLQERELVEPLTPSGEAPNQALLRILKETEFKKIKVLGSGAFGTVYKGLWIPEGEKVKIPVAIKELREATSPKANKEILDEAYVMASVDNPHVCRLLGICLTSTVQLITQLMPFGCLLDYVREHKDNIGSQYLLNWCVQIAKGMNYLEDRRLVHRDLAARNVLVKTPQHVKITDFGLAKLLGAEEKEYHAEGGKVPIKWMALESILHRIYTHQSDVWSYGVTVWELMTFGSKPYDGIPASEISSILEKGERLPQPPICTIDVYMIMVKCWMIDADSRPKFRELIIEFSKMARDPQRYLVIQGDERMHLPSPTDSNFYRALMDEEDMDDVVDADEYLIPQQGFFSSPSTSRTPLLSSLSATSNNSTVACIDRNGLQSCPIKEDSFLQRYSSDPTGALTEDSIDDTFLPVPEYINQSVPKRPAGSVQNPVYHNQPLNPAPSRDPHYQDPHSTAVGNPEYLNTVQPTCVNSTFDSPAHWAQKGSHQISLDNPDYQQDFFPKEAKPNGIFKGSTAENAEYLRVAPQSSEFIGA

For `CCOC(=O)/C(C#N)=C/c1ccc([N+](=O)[O-])s1`, the GI50 [1] was 16.2 µM, the GI50 [2] was 1.9 µM and the GI50 [3] was 3.47 µM. The GI50 [4] was 10.7 µM, the GI50 [5] was 1.95 µM and the GI50 [6] was 6.92 µM. For the same compound, the IC50 [7] was 5.4 µM, the GI50 [8] was 12 µM and the GI50 [9] was 1.62 µM. It also gave an IC50 [10] of 4.59 µM, a GI50 [11] of 2.24 µM and a GI50 [12] of 1.86 µM. The GI50 [13] was 17 µM, the IC50 [14] was 4.6 µM and the GI50 [15] was 5.75 µM. For the same compound, the IC50 [16] was 34 µM, the GI50 [17] was 2.34 µM and the GI50 [18] was 1.48 µM. For the same compound, the GI50 [19] was 1.7 µM, the GI50 [20] was 3.09 µM and the GI50 [21] was 3.47 µM. The GI50 [22] was 1.86 µM, the GI50 [23] was 1.2 µM and the GI50 [24] was 1.48 µM. For the same compound, the GI50 [25] was 10.7 µM, the GI50 [26] was 14.8 µM and the GI50 [27] was 2.19 µM. The GI50 [28] was 7.58 µM, the GI50 [29] was 5.75 µM and the GI50 [30] was 2.75 µM. For the same compound, the GI50 [31] was 14.8 µM, the GI50 [32] was 1.35 µM and the GI50 [33] was 2.95 µM. It also gave a GI50 [34] of 15.5 µM, a GI50 [35] of 2.14 µM and a GI50 [36] of 2.34 µM. It also gave a GI50 [37] of 1.74 µM, a GI50 [38] of 15.5 µM and a GI50 [39] of 2.19 µM. For the same compound, the GI50 [40] was 2.04 µM, the GI50 [41] was 6.92 µM and the GI50 [42] was 2.09 µM. It also gave a GI50 [43] of 3.31 µM, a GI50 [44] of 1.2 µM and a GI50 [45] of 1.7 µM. For the same compound, the GI50 [46] was 1.74 µM, the GI50 [47] was 1.99 µM and the GI50 [48] was 6.16 µM. It also gave a GI50 [49] of 0.871 µM and a GI50 [50] of 1.69 µM.
With `N#CC(C#N)=Cc1csc([N+](=O)[O-])c1` the GI50 [1] was greater than 100 µM, the GI50 [2] was 19.5 µM and the GI50 [3] was 28.2 µM. It also gave a GI50 [4] of 15.1 µM, a GI50 [5] of 59 µM and a GI50 [6] of 35.5 µM. It also gave an IC50 [7] of 40.4 µM, a GI50 [8] of 1.99 µM and a GI50 [9] of 27.5 µM. For the same compound, the IC50 [10] was 44.6 µM, the GI50 [11] was 33.9 µM and the GI50 [12] was 26.3 µM. It also gave a GI50 [13] of 74.1 µM, an IC50 [14] of 28.4 µM and a GI50 [15] of 34.7 µM. It also gave an IC50 [16] of 23 µM, a GI50 [17] of 20.9 µM and a GI50 [18] of 16.2 µM. It also gave a GI50 [19] of 17.4 µM, a GI50 [20] of 41.7 µM and a GI50 [21] of 45.7 µM. The GI50 [22] was 30.9 µM, the GI50 [23] was 15.8 µM and the GI50 [24] was 43.6 µM. The GI50 [25] was 33.9 µM, the GI50 [26] was 25.7 µM and the GI50 [27] was 19.9 µM. For the same compound, the GI50 [28] was 25.1 µM, the GI50 [29] was 41.7 µM and the GI50 [30] was 22.9 µM. For the same compound, the GI50 [31] was 60.2 µM, the GI50 [32] was 17.8 µM and the GI50 [33] was 38 µM. For the same compound, the GI50 [34] was greater than 100 µM, the GI50 [35] was 24.5 µM and the GI50 [36] was 31.6 µM. For the same compound, the GI50 [37] was 23.4 µM, the GI50 [38] was 59 µM and the GI50 [39] was 33.9 µM. For the same compound, the GI50 [40] was 21.9 µM, the GI50 [41] was 54.9 µM and the GI50 [42] was 19 µM. For the same compound, the GI50 [43] was 26.9 µM, the GI50 [44] was 27.5 µM and the GI50 [45] was 28.8 µM. The GI50 [46] was 17.8 µM, the GI50 [47] was 19.5 µM and the GI50 [48] was 38.9 µM. It also gave a GI50 [49] of 27.5 µM and a GI50 [50] of 15.1 µM.
Work on `N#CC(C#N)=C(N)/C(C#N)=C/c1ccc([N+](=O)[O-])s1` yielded a GI50 [1] of 17.8 µM, a GI50 [2] of 19.9 µM and a GI50 [3] of 18.6 µM. For the same compound, the GI50 [4] was 14.8 µM, the GI50 [5] was 26.9 µM and the GI50 [6] was 18.2 µM. For the same compound, the IC50 [7] was 8.4 µM, the GI50 [8] was 4.07 µM and the GI50 [9] was 15.1 µM. The IC50 [10] was 13.4 µM, the GI50 [11] was 22.9 µM and the GI50 [12] was 17 µM. It also gave a GI50 [13] of 20.9 µM, an IC50 [14] of 6.07 µM and a GI50 [15] of 13.5 µM. The IC50 [16] was 12.2 µM, the GI50 [17] was 12.3 µM and the GI50 [18] was 3.39 µM. It also gave a GI50 [19] of 9.33 µM, a GI50 [20] of 10.5 µM and a GI50 [21] of 18.2 µM. The GI50 [22] was 11.5 µM, the GI50 [23] was 7.58 µM and the GI50 [24] was 3.23 µM. For the same compound, the GI50 [25] was 19.9 µM, the GI50 [26] was 19.5 µM and the GI50 [27] was 4.57 µM. The GI50 [28] was 14.8 µM, the GI50 [29] was 23.4 µM and the GI50 [30] was 6.91 µM. It also gave a GI50 [31] of 17.8 µM, a GI50 [32] of 79.4 µM and a GI50 [33] of 19.9 µM. The GI50 [34] was 19.5 µM, the GI50 [35] was 18.2 µM and the GI50 [36] was 5.01 µM. The GI50 [37] was 5.89 µM, the GI50 [38] was 17.8 µM and the GI50 [39] was 17.8 µM. It also gave a GI50 [40] of 15.5 µM, a GI50 [41] of 23.4 µM and a GI50 [42] of 10.5 µM. For the same compound, the GI50 [43] was 19.5 µM, the GI50 [44] was 3.89 µM and the GI50 [45] was 15.5 µM. For the same compound, the GI50 [46] was 12 µM, the GI50 [47] was 12.6 µM and the GI50 [48] was 22.4 µM. The GI50 [49] was 12.9 µM and the GI50 [50] was 11 µM.
